Reference: patent US20240417689A1, “ENGINEERING OF STRATIFIED CELL SHEETS USING MESENCHYMAL STEM CELLS” (Emmaus Life Sciences, Inc, priority 2021, published 2024)
“Also recorded” adds a separate entry of the source.

Columns and labels:
adipose stromal cells [1] = assay: Engineering of chondrocyte cell sheets with ROCK inhibitor (detachment, time of formation); assay type: cell-based, human; conditions: for Success in engineering the chondrocyte multilayer cell sheets: ROCK 1 and 2 inhibitors; for Detachment of the cell sheets / Time in which cell sheets were formed: Y-27632 at 10 μM or Y-33075 at 1 μM from the first day of differentiation; for Reduction of the time of differentiation: Y-27632 at 10 μM or Y-33075 at 1 μM, versus 21 days with edge cutting
Experimental: (§1) Chondrocyte Cell Sheet: ASC were cultured with RoosterNourish™-MSC-XF, until the cells reached confluence. From that day, ASC were cultured with MesenCult™-ACF Chondrogenic Differentiation Kit (Stem Cell, Vancouver, Canada). The culture media was replaced every 2 days, up to X days from the initial seeding day depending on the technique used to engineer the cell sheet.
(§2) One of two techniques was used to complete the engineering process: 1) To stop centrifuge tension, the edges of the cell sheets were cut, and the cell sheet was left resting in almost absence of culture media (MesenCult™-ACF Chondrogenic Differentiation) to let the cell sheets' edges attached to the cell culture surface, for 20 minutes. The differentiation culture media (MesenCult™-ACF Chondrogenic Differentiation) was added to the cell culture dish and the chondrocyte cell sheet was engineered up to 21 days after the initial day of differentiation. 2) ROCK inhibitor Y-27632 at 10 μM or ROCK inhibitor Y-33075 at 1 μM were used from the first day of differentiation.
Undifferentiated ASCCS were engineered in 10 days, using a chemically defined culture media. Differentiated ASCCS into Chondrocyte (treated with ROCK inhibitor from 1 to 20 μM), […] and osteoblast were also engineered using chemically defined and animal free culture media, in 14, 21 and 14 days, respectively. The transmittance of the ASCCS were measured over time from the time the cells reached confluence until the cell sheets were harvested.

adipose stromal cells [2] = assay: Chondrogenic differentiation of stem cells in differentiation medium supplemented with ROCK inhibitor; assay type: cell-based, human; conditions: for Cell differentiation noticed / started, time after initial treatment with ROCK inhibitor: MesenCult-ACF Chondrogenic Differentiation medium supplemented with ROCK inhibitor, dose dependent; for Induction of stem cell differentiation: differentiation medium supplemented with ROCK inhibitor
Experimental: as §1, §2

adipose stromal cells [3] = assay: Toxicity of ROCK inhibitor for the cells during differentiation; assay type: cell-based; conditions: dose response

C[C@@H](N)[C@H]1CC[C@H](C(=O)Nc2ccncc2)CC1 [Y-27632, (1R,4r)-4-((R)-1-aminoethyl)-N-(pyridin-4-yl)cyclohexane-1-carboxamide]
Success in engineering the chondrocyte multilayer cell sheets (adipose stromal cells [1]): used with success
Detachment of the cell sheets (adipose stromal cells [1]): didn't detach
Time in which cell sheets were formed (adipose stromal cells [1]): 2 weeks
Reduction of the time of differentiation (adipose stromal cells [1]): 33%
Cell differentiation noticed / started, time after initial treatment with ROCK inhibitor (adipose stromal cells [2]): 2 days

C[C@@H](N)c1ccc(C(=O)Nc2ccnc3[nH]ccc23)cc1 [Y-33075, (R)-4-(1-aminoethyl)-N-(1H-pyrrolo[2,3-b]pyridin-4-yl)benzamide]
Success in engineering the chondrocyte multilayer cell sheets (adipose stromal cells [1]): used with success
Detachment of the cell sheets (adipose stromal cells [1]): didn't detach
Time in which cell sheets were formed (adipose stromal cells [1]): 2 weeks
Reduction of the time of differentiation (adipose stromal cells [1]): 33%
Cell differentiation noticed / started, time after initial treatment with ROCK inhibitor (adipose stromal cells [2]): 1 days

Cc1cncc2cccc(S(=O)(=O)N3CCCNC[C@@H]3C)c12 [H-1152, (S)-4-methyl-5-((2-methyl-1,4-diazepan-1-yl)sulfonyl)isoquinoline]
Cell differentiation noticed / started, time after initial treatment with ROCK inhibitor (adipose stromal cells [2]): 2 days
Induction of stem cell differentiation (adipose stromal cells [2]): induced the cell differentiation but it is less efficient than Y-27632 and Y-33075

CC(C)NC(=O)COc1cccc(-c2nc(Nc3ccc4[nH]ncc4c3)c3ccccc3n2)c1 [Belumosudil, 2-[3-[4-(1H-Indazol-5-ylamino)quinazolin-2-yl]phenoxy]-N-propan-2-ylacetamide]
Induction of stem cell differentiation (adipose stromal cells [2]): failed to induce stem cell differentiation; also recorded: does not induce cell differentiation
Toxicity for the cells (adipose stromal cells [3]): toxic for the cells in a dose response, inducing cell death
